Assay results from article PMC8692993, “PPARα and PPARγ activation is associated with pleural mesothelioma invasion but therapeutic inhibition is ineffective” (iScience, 2021).

Tests used:
[1] = In vitro metabolic stability in mouse liver microsomes; format: in vitro ADME
Procedure: The test compound (1 μM) was incubated at 37°C with mouse liver microsomes (XenoTech) at a protein concentration of 0.4 mg/mL. The metabolic reaction was initiated by the addition of a NADPH-regenerating system and quenched at various time points over a 60 min incubation period by the addition of acetonitrile. Control samples (without NADPH) were included (and quenched at 2, 30, 60 min) to monitor for potential degradation in the absence of cofactor. The degradation half-life and in vitro intrinsic clearance (in vitro CLint) in microsomes were calculated using the apparent first order degradation rate constant for substrate depletion ([Obach, 1999]).
Compound quantification was performed using a Xevo G2 QTOF (in vitro metabolic stability) using positive electrospray ionisation under MS^E mode or a Waters Xevo TQD (mouse exposure) mass spectrometer using positive electrospray ionisation multiple-reaction monitoring mode. Compounds were eluted using an acetonitrile-water/0.05% formic acid gradient at a flow rate of 0.4 mL/min operating over a 4 min cycle on a Waters Acquity UPLC using a Supelco Ascentis Express RP C8 column (50 × 2.1 mm, 2.7 μm). Extraction was performed by precipitation using acetonitrile (1:1 volume ratio for microsomes and 2:1 volume ratio for plasma samples) followed by centrifugation. Compound concentrations were quantified against calibration standards prepared in an appropriate matrix to match the test samples (e.g. plasma or microsomes).

PPARγ = target: T1, PPARγ (Homo sapiens, UniProt P37231); test: HG5LN reporter cell assay, PPARγ-mediated transcription; format: cell-based; design: expressed in transfected cells; host or cells: HG5LN (HeLa-derived, GAL4RE-luciferase)
T1 sequence (P37231 238-503 limits assumed): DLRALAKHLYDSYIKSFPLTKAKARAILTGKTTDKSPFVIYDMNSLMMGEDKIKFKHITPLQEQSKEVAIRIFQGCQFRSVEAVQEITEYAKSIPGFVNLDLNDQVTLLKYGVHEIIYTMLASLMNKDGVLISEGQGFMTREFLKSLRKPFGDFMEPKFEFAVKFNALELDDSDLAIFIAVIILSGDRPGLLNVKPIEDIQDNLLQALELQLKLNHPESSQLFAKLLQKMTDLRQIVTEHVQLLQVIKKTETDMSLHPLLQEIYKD
From the text: Nuclear receptors, including PPARα and γ, are ligand-inducible transcription factors that form heterodimers with retinoid X receptors and bind to specific DNA sites located in the enhancer/promoter region of target genes, releasing co-repressors and/or recruiting co-activators ([Wang, 2010]). We therefore assessed the functional consequences of the ligands on PPARα and γ-mediated transcriptional activation in reporter cell lines. These cell lines were generated as previously reported by a two-step transfection procedure ([Seimandi et al., 2005]). First, a stable cell line, HG5LN, expressing the reporter gene (GAL4RE-luciferase) was developed from the HeLa cell line. These cells were then transfected with a plasmid expressing the C-terminal ligand-binding domain of PPARα or γ fused to GAL4 DNA-binding domain. The parental HG5LN cells were used as a control to test non-specific modulation of luciferase expression by the small molecules investigated (Figure S4A). The HG5LN PPAR reporter cells therefore allow comparison of the functional activity at, and selectivity of different ligands for, PPARα and γ. […] As expected ([Abu Aboud et al., 2015]), GW6471 potently antagonized PPARα (Figure 4E and Table 1).
A transfected […] cell line HG5LN was used ([Balaguer et al., 2001]). These cells were cultured in Dubecco's modified Eagle's medium (DMEM-F12 Thermo Fisher Scientific) with phenol red and supplemented with 5% foetal calf serum, incubated at 37°C in a 5% CO2/95% air-humidified atmosphere. Luciferase assays were performed in DMEM-F12 (Thermo Fisher Scientific) without phenol red and supplemented with 5% dextran-coated charcoal-stripped FCS (test culture medium), puromycin (Thermo Fisher Scientific) 0.5 μg/mL and geneticin (Thermo Fisher Scientific) 1 mg/mL. Cells were seeded at a density of 5 x 10^4 cells/well and incubated for 8 h at 37°C in a 96-well plate white opaque tissue culture plates (Becton-Dickinson). Tested compounds were added in serial dilutions and incubated for 16 h at 37°C. After incubation, the medium containing the effectors was carefully removed and replaced by culture medium containing 3 x 10^−4 mol/L luciferin (Sigma Chemicals). After 5 min incubation at room temperature, the 96-well plate was then read with a Microbeta Wallac luminometer and the luminescence was measured in the living cells for 2 s. All experiments were performed in quadruplicate.

**Q.** What does the source list for CCC(=O)NC[C@H](Cc1ccc(OCCc2nc(-c3ccccc3)oc2C)cc1)N/C(C)=C\C(=O)c1ccc(C(F)(F)F)cc1 [GW6471]?
**A.** In vitro CLint ([1]; NADPH-activated mouse liver microsomes): 556 μL/min/mg protein; Degradation half-life ([1]; NADPH-activated mouse liver microsomes, 1 μM, 0.4 mg/mL protein): 3 min; Stability in the absence of NADPH ([1]; mouse liver microsomes without NADPH): stable; Functionality, Type (PPARγ): antagonist; IC50 (PPARγ; inhibition of agonism by 30 nM rosiglitazone, 16 h incubation, mean of 3 experiments ± SEM): 210 ± 64 nM
